Experimental data from patent US20230014181A1, “CULTURE SYSTEM AND METHODS FOR IMPROVED MODELING OF NEUROLOGICAL CONDITIONS” (Genentech, Inc., priority 2021, published 2023).
Where a name gives a salt, the structure may show the parent alone. Read-outs that look alike come from different tables or passages of the source. Where a SMILES comes first, the peptide text is derived from it. [ ]: non-standard residue; d: D form. Nle = CCCC[C@H](N)C(=O)O

How the values were obtained:
[1] = tested on: human iPSC neurons, astrocytes and microglia treated with 5 μM sAβ42s; experiment: Focused small molecule screen, triple culture (neuron, astrocyte, microglia), rescue from sAβ42s toxicity; format: cell-based
Description: (§1) FIGS. 11A-11D show synapse % rescue versus MAP2% rescue (FIGS. 11A-11B) and beta III tubulin % rescue versus MAP2% rescue (FIGS. 11C-11D), in neurons and astrocytes (FIGS. 11A and 11C) or neurons, astrocytes, and microglia (FIGS. 11B and 11D) treated with 5 μM sAβ42s and small molecules from a focused screen of known neuroprotective agents at multiple concentrations (50 μM, 25 μM, 12.5 μM and 6.25 μM (double culture), 50 μM, 12.5 μM, 3.1 μM and 0.78 μM (triple culture). Small molecules that prevented toxicity in dendrites (MAP2), synapses (Synapsin 1/2), cell count (CUX2), or axons ([…]) at or above 30% were considered hits (red dotted line).
Frozen cells were thawed and immediately seeded at a density of 8,000 cells/well of a 384-well plate onto 8-week old neuron-astrocyte co-culture in Microglia media (BrainPhys™ neuronal media (Stem Cell Technologies) supplemented with 1× B27 with vitamin A, 1×N2 Plus Media Supplement (R&D Systems), 20 ng/mL BDNF, 20 ng/mL GDNF, 1 mM creatine, 200 nM L-ascorbic acid, 1 μg/mL mouse laminin, 0.5 mM GlutaMAX™ (Thermofisher), 0.5× penicillin-streptomycin, 1× normocin, 5 ng/mL TGF-β, 100 ng/mL human IL-34, 1.5 μg/mL cholesterol, 1 ng/mL gondoic acid, 100 ng/mL oleic acid, 460 μM thioglycerol, 1× insulin-transferrin-selenium, 25 ng/mL rhM-CSF, 5.4 μg/mL human insulin solution).
(§2) In double (neuron, astrocyte) and triple (neuron, astrocyte, microglia) cultures, each small molecule listed in Table 1 was tested in the AD model paradigm at up to four concentrations. Molecules that characterized ≥30% rescue in any of the four measurements of dendrites area (MAP2), synapses count (synapsin 1/2), or cell count (CUX2), or axon area (Beta III Tubulin; “BT3”)) were classified as hits (FIGS. 11A-11D, Table 2, and Table 3).

[2] = tested on: human iPSC neurons and astrocytes treated with 5 μM sAβ42s; experiment: Focused small molecule screen, double culture (neuron, astrocyte), rescue from sAβ42s toxicity, high content imaging; format: cell-based; conditions: double culture, 5 μM sAβ42s; for percent rescue from sAβ42s toxicity at 25 µM / percent rescue from sAβ42s toxicity at 50 µM: Homo sapiens, iPSC
Description: as §1
Neurons from both NSC lines were evaluated by immunofluorescence staining. Briefly, cells were fixed with 4% PFA and 4% sucrose at room temperature for 20 minutes using Bravo automation. Fixed cells were then washed 2 times with PBS using Biotek 406 microplate washer (Beckman Coulter), followed by permeabilization and blocking by incubation with a solution containing 1×PBS, 0.1% Triton X-100, 2% donkey serum, and 1% BSA at room temperature for 30 minutes. Blocking solution was removed and cells were incubated with primary antibodies in blocking solution overnight at 4° C. After washing 6 times with PBS on Biotek 406 cell plate washer (Beckman Coulter), cells were then incubated with fluorophore-conjugated secondary antibodies for 1 hour at room temperature in the dark to avoid photobleaching. Cells were then washed 6 more times in with PBS before imaging. Fluorescent images were captured using IN Cell 6000 confocal microscope (GE Healthcare Life Sciences). The image analysis was performed with IN Cell 6000 analysis software.
Prior to experimentation, media volume in wells containing neurons was equalized with liquid handling automation (Bravo) in order to ensure precise control of concentrations. All Aβ42 oligomers, anti-Aβ, small molecules, inflammatory cytokines were prepared at 10× concentration and added to Neuronal Culture Media at an appropriate volume. For the repeated dosing experiments, the media were refreshed 50% at each dosing first, before adding Aβ42 oligomers, and/or anti-Aβ antibody at the specified final concentration.
as §2

Row | SMILES | % B3T rescue ([1]; 0.78 μM compound) [%] | % MAP2 rescue ([1]; 0.78 μM compound) [%] | % Synapse rescue ([1]; 0.78 μM compound) [%] | % B3T rescue ([1]; 12.50 μM compound) [%] | % B3T rescue ([2]; 6.25 μM compound) [%] | % Cux2 rescue ([2]; 6.25 μM compound) [%] | % MAP2 rescue ([2]; 6.25 μM compound) [%] | % Synapse rescue ([2]; 6.25 μM compound) [%] | % B3T rescue ([2]; 12.5 μM compound) [%] | % Cux2 rescue ([2]; 12.5 μM compound) [%] | % MAP2 rescue ([2]; 12.5 μM compound) [%] | % Synapse rescue ([2]; 12.5 μM compound) [%] | % B3T rescue ([2]; 25 μM compound) [%] | % Cux2 rescue ([2]; 25 μM compound) [%] | % MAP2 rescue ([2]; 25 μM compound) [%] | % Synapse rescue ([2]; 25 μM compound) [%] | % B3T rescue ([2]; 50 μM compound) [%] | % Cux2 rescue ([2]; 50 μM compound) [%] | % MAP2 rescue ([2]; 50 μM compound) [%] | % Synapse rescue ([2]; 50 μM compound) [%] | further results
1 | CCCC[C@@H](C=O)NC(=O)[C@H](CC(C)C)NC(=O)[C@H](CC(C)C)NC(C)=O [Ac-Leu-Leu-Nle-CHO] (Ac-Leu-Leu-[Nle]-aldehyde) | 38 | 21 | 14 | 44 | 14 | 85 | 31 | 0 | 0 | 87 | 18 | −4 | −11 | 87 | 20 | −5 | 0 | 78 | 23 | 2 | % B3T rescue ([1]; 3.13 μM compound): 57%; % MAP2 rescue ([1]; 3.13 μM compound): 55%; % Synapse rescue ([1]; 3.13 μM compound): 38%; % MAP2 rescue ([1]; 12.50 μM compound): 48%; % Synapse rescue ([1]; 12.50 μM compound): 18%
2 | Cc1ccc(S(=O)(=O)/C=C/C#N)cc1 [BAY 11-7082] |  |  |  |  | 38 | 70 | 34 | −2 | 31 | 85 | 36 | −3 | 14 | 82 | 17 | −13 |  |  |  |  | % B3T rescue ([1]; 50.00 μM compound): 44%; % MAP2 rescue ([1]; 50.00 μM compound): 21%; % Synapse rescue ([1]; 50.00 μM compound): −1%
3 | CC1=NN(c2ccc(C(=O)O)cc2)C(=O)/C1=C\c1ccc(-c2cc(C)c(C)cc2[N+](=O)[O-])o1 [C 646] | 27 | 37 | 28 | 42 |  |  |  |  |  |  |  |  |  |  |  |  | 49 | 25 | 54 | 19 | % MAP2 rescue ([1]; 12.50 μM compound): 41%; % Synapse rescue ([1]; 12.50 μM compound): 38%; % B3T rescue ([1]; 50.00 μM compound): 53%; % MAP2 rescue ([1]; 50.00 μM compound): 37%; % Synapse rescue ([1]; 50.00 μM compound): 39%
4 | CN(C)[C@@H]1C(O)=C(C(N)=O)C(=O)[C@@]2(O)C(O)=C3C(=O)c4c(O)ccc(Cl)c4[C@@H](O)[C@H]3C[C@@H]12 [Demeclocydine hydrochloride, Demeclocycline hydrochloride] |  |  |  |  |  |  |  |  |  |  |  |  |  |  |  |  |  |  |  |  | percent rescue from sAβ42s toxicity at 25 µM ([2]; 25 μM compound, read-out: % B3T rescue): 35%; percent rescue from sAβ42s toxicity at 25 µM ([2]; 25 μM compound, read-out: % Cux2 rescue): 6%; percent rescue from sAβ42s toxicity at 25 µM ([2]; 25 μM compound, read-out: % MAP2 rescue): 23%; percent rescue from sAβ42s toxicity at 25 µM ([2]; 25 μM compound, read-out: % Synapse rescue): 15%; percent rescue from sAβ42s toxicity at 50 µM ([2]; 50 μM compound, read-out: % B3T rescue): 63%; percent rescue from sAβ42s toxicity at 50 µM ([2]; 50 μM compound, read-out: % Cux2 rescue): 33%; percent rescue from sAβ42s toxicity at 50 µM ([2]; 50 μM compound, read-out: % MAP2 rescue): 39%; percent rescue from sAβ42s toxicity at 50 µM ([2]; 50 μM compound, read-out: % Synapse rescue): 27%
5 | O=C1Nc2ccc(I)cc2/C1=C/c1cc(Br)c(O)c(Br)c1 [GW 5074] |  |  |  |  | 16 | 95 | 17 | 8 | 9 | 76 | 12 | 6 | 14 | 115 | 19 | 8 | 48 | 162 | 54 | 8 | 
6 | CN1C(=O)C(Cc2c[nH]c3ccccc23)NC1=S (stereo not drawn) [Necrostatin-1] |  |  |  |  |  |  |  |  |  |  |  |  |  |  |  |  | 11 | 10 | 37 | 15 | 
